Consider 4 molecules from patent US6235973A, “Expression of magainin and PGL classes of antimicrobial peptide genes in plants, and their use in creating resistance to multiple plant pathogens” (Sanford Scientific, Inc., priority 1998, dated 2001).

The subject of assay [1] is Phytophthora parasitica (vinca). Put plainly: In vitro MIC, microtiter serial dilution. The assay is classed as cell-based.
Assay [2] concerns Erwinia carotovora. Put plainly: In vitro MIC, microtiter serial dilution. The assay is classed as cell-based. To be noted: inhibits all growth after 24 hrs.
The subject of assay [3] is Fusarium solani. Put plainly: In vitro MIC, microtiter serial dilution. The class given is cell-based.
The subject of assay [4] is Botrytis cinerea. Put plainly: Anti-Botrytis leaf disk bioassay, transgenic petunia. As to conditions: control = 100.
In assay [5] the test system is Botrytis cinerea. The assay is described as follows: Anti-Botrytis leaf disk bioassay, transgenic poinsettia. As to conditions: control = 100.
Assay [6] has as its system Rhizoctonia solani R2. To be noted: Rhizoctonia solani R2, mycelial fragments.
Assay [7] relates to Phytophthora parasitica (petunia). Put plainly: In vitro MIC, microtiter serial dilution. The assay is classed as cell-based. As to conditions: germinated.
Assay [8] deals with Thielaviopsis basicola. The assay is described as follows: In vitro MIC, microtiter serial dilution. The class given is cell-based.
Assay [9] relates to Pseudomonas syringae and Erwinia carotovora. To be noted: for activity against log phase-grown Pseudomomas and Erwinia: compared with MSI-99 and D5-C.
In assay [10] the test system is Pseudomonas syringae. Put plainly: In vitro MIC, microtiter serial dilution. The class given is cell-based. To be noted: inhibits all growth after 24 hrs.
Assay [11] concerns Botrytis cinerea. The assay is described as follows: In vitro MIC, microtiter serial dilution. The class given is cell-based.
Assay [12] relates to Fusarium graminearum. The assay is classed as cell-based. As to conditions: non-germinated.
The mark [13] stands for this setting: plasmid 144, three distinct plants.
The mark [14] stands for this setting: plasmid 143, three distinct plants.

Where “and” joins values, the source holds several entries; their conditions need not be identical. Equal entries are not always repeated. Residues, ends and D or L forms follow the SMILES beside them. Bounds are passed on as bounds.

Take `CC[C@H](C)[C@H](NC(=O)[C@H](CCCCN)NC(=O)[C@H](CCCNC(=N)N)NC(=O)[C@H](C)NC(=O)[C@H](CC(C)C)NC(=O)[C@H](CCCCN)NC(=O)[C@H](CCCCN)NC(=O)[C@H](CC(C)C)NC(=O)[C@H](CCCNC(=N)N)NC(=O)[C@H](CCCNC(=N)N)NC(=O)CNC(=O)[C@@H](NC(=O)[C@H](CCCNC(=N)N)NC(=O)[C@H](CCCCN)NC(=O)[C@@H](NC(=O)[C@H](C)NC(=O)[C@H](CCCNC(=N)N)NC(=O)[C@H](CCCCN)NC(=O)[C@H](CCCNC(=N)N)NC(=O)[C@H](CCCCN)NC(=O)[C@@H](N)CCSC)C(C)C)C(C)C)C(=O)N[C@@H](C)C(=O)N[C@@H](CCCNC(=N)N)C(=O)N[C@@H](CC(C)C)C(=O)NCC(=O)N[C@H](C(=O)N[C@@H](C)C(=O)N[C@@H](Cc1ccccc1)C(=O)O)C(C)C` [D5-C, reference compound] (H-MKRKRAVKRVGRRLKKLARKIARLGVAF-OH): the “Minimum Inhibitory Concentration” value is 16 to 32 µg/mL in assay [1] (germinated); 16 µg/mL in assay [1] (non-germinated); 2 µg/mL in [2]; 4 µg/mL in [3] (germinated); 4 µg/mL in assay [3] (non-germinated); 32 to 64 µg/mL in assay [6]. The “Minimum Inhibitory Concentration” value is 16 to 32 µg/mL in [7], 16 µg/mL in [8] (germinated) and 16 µg/mL in assay [8] (non-germinated). For the same molecule, the “Disease Incidence, percent leaf disks infected relative to untransformed control” value in assay [4] (setting [13]) was 31% and 41% and 50%; in assay [4] (plasmid 148, three distinct plants), 52% and 70% and 75%; in assay [5] (setting [13]), 62% and 68% and 72%; in assay [5] (plasmid 165, three distinct plants), 42% and 60% and 67%. Besides, the MIC in [9] was < 2 µg/mL.

Turning to `CC[C@H](C)[C@H](NC(=O)CNC(=O)[C@@H](N)CCSC)C(=O)NCC(=O)N[C@@H](CCCCN)C(=O)N[C@@H](Cc1ccccc1)C(=O)N[C@@H](CC(C)C)C(=O)N[C@@H](CCCCN)C(=O)N[C@@H](CO)C(=O)N[C@@H](C)C(=O)N[C@@H](CCCCN)C(=O)N[C@@H](CCCCN)C(=O)N[C@@H](Cc1ccccc1)C(=O)NCC(=O)N[C@@H](CCCCN)C(=O)N[C@@H](C)C(=O)N[C@@H](Cc1ccccc1)C(=O)N[C@H](C(=O)N[C@@H](CCCCN)C(=O)N[C@H](C(=O)N[C@@H](CC(C)C)C(=O)N[C@@H](CC(N)=O)C(=O)N[C@@H](CO)C(=O)O)[C@@H](C)CC)C(C)C` [MSI-99] (H-MGIGKFLKSAKKFGKAFVKILNS-OH; N-terminus and C-terminus assumed), the “Minimum Inhibitory Concentration” value in assay [1] (germinated) is 16 to 32 µg/mL; in assay [1] (non-germinated), 64 µg/mL; in [2], 1 µg/mL; in assay [3] (germinated) it was 4 µg/mL; in assay [3] (non-germinated), 2 µg/mL; in assay [10], 1 µg/mL. For the same molecule, the “Minimum Inhibitory Concentration” value in assay [11] (germinated) was 8 µg/mL; in assay [11] (non-germinated) it was 8 µg/mL; in assay [6], 16 µg/mL; in assay [7] it was 8 to 16 µg/mL; in [8] (germinated), 4 µg/mL; in assay [8] (non-germinated), 4 µg/mL. The “Minimum Inhibitory Concentration” value in assay [12] was 4 µg/mL. The “Disease Incidence, percent leaf disks infected relative to untransformed control” value in assay [4] (setting [14]) was 26% and 30% and 31%; in [4] (plasmid 147, three distinct plants) it was 36% and 60% and 70%; in assay [5] (setting [14]), 48% and 61% and 69%; in [5] (plasmid 168, three distinct plants), 31% and 40% and 52%. The MIC in [9] is < 2 µg/mL.

For the molecule `CC[C@H](C)[C@H](NC(=O)CNC(=O)[C@@H](N)CCSC)C(=O)NCC(=O)N[C@@H](CCCCN)C(=O)N[C@@H](Cc1ccccc1)C(=O)N[C@@H](CC(C)C)C(=O)N[C@@H](Cc1c[nH]cn1)C(=O)N[C@@H](CO)C(=O)N[C@@H](C)C(=O)N[C@@H](CCCCN)C(=O)N[C@@H](CCCCN)C(=O)N[C@@H](Cc1ccccc1)C(=O)NCC(=O)N[C@@H](CCCCN)C(=O)N[C@@H](C)C(=O)N[C@@H](Cc1ccccc1)C(=O)N[C@H](C(=O)NCC(=O)N[C@@H](CCC(=O)O)C(=O)N[C@H](C(=O)N[C@@H](CCSC)C(=O)N[C@@H](CC(N)=O)C(=O)N[C@@H](CO)C(=O)O)[C@@H](C)CC)C(C)C` [Mag 2] (H-MGIGKFLHSAKKFGKAFVGEIMNS-OH; N-terminus and C-terminus assumed), the “Minimum Inhibitory Concentration” value is > 128 µg/mL in [1] (germinated); > 256 µg/mL in assay [1] (non-germinated); 32 µg/mL in assay [2]; 4 to 8 µg/mL in assay [3] (germinated); 4 µg/mL in [3] (non-germinated); 32 µg/mL in [10]. In addition, the “Minimum Inhibitory Concentration” value is 8 µg/mL in assay [11] (germinated); 8 to 16 µg/mL in [11] (non-germinated); 16 to 32 µg/mL in assay [6]; > 128 µg/mL in [7]; 4 µg/mL in assay [8] (germinated); 8 µg/mL in [8] (non-germinated). Moreover, the “Minimum Inhibitory Concentration” value in assay [12] was determined as 4 µg/mL. Further, the “activity against log phase-grown Pseudomomas and Erwinia” value in assay [9] is given as “significantly less active”.

In the case of `CC[C@H](C)[C@H](NC(=O)[C@H](C)NC(=O)CNC(=O)[C@H](C)NC(=O)[C@H](CCCCN)NC(=O)[C@H](CO)NC(=O)[C@H](C)NC(=O)[C@H](CCSC)NC(=O)CN)C(=O)N[C@@H](C)C(=O)NCC(=O)N[C@@H](CCCCN)C(=O)N[C@H](C(=O)N[C@@H](C)C(=O)N[C@@H](CCCCN)C(=O)N[C@H](C(=O)N[C@@H](C)C(=O)N[C@@H](CC(C)C)C(=O)N[C@@H](CCCCN)C(=O)N[C@@H](C)C(=O)N[C@@H](CC(C)C)C(N)=O)C(C)C)[C@@H](C)CC` [PGL] (H-GMASKAGAIAGKIAKVALKAL-NH2), the “Minimum Inhibitory Concentration” value is > 128 µg/mL in assay [1] (germinated); > 256 µg/mL in assay [1] (non-germinated); 32 µg/mL in [2]; 8 to 16 µg/mL in [3] (germinated); 4 µg/mL in assay [3] (non-germinated); > 64 µg/mL in assay [10]. Besides, the “Minimum Inhibitory Concentration” value in [11] (germinated) was 8 µg/mL; in assay [11] (non-germinated) it was 4 to 8 µg/mL; in [6], 16 to 32 µg/mL; in assay [7], > 128 µg/mL; in assay [8] (germinated) it was 4 µg/mL; in assay [8] (non-germinated), 4 to 8 µg/mL. The “Minimum Inhibitory Concentration” value in assay [12] lay in the range of 4 to 8 µg/mL. Moreover, the “activity against log phase-grown Pseudomomas and Erwinia” value in assay [9] was “significantly less active”.
